Laboratory results: patent US12071404B2, “Aza (indole)-, benzothiophene-, and benzofuran-3-sulfonamides” (UCB Pharma GmbH, priority 2016, dated 2024)

The compounds below were run against GPR17 (Homo sapiens, UniProt Q13304) (assay: Calcium mobilization functional assay (GPR17 Ca2+ assay)). Settings: CHO hGPR17 cells, inhibition of 50 nM MDL29,951, Calcium 5 dye, FLIPR; read-out: Ca2+ assay pIC50 (converted).
Format: cell-based
Design: host or cells: Flp-In T-REx CHO
Protocol: Flp-In T-REx CHO cells stably expressing human GPR17 receptor (CHO hGPR17) from Evi Kostenis' lab (Bonn University, Germany) were cultured at 37° C. in a humidified atmosphere of 5% CO2. Cells were grown in DMEM with Nutrient Mixture F-12 supplemented with hygromycin B (500 μg/mL) and blasticidin (30 μg/mL). Expression from the Flp-In locus was induced by treatment with doxycycline (1 μg/mL) for 16-20 h prior assays.
GPR17 is a G-protein coupled receptor. GPR17 activation triggers Gq-type G-protein signaling resulting in endoplasmic reticulum calcium (Ca^2+) stores release in cytosol which can be measured using Calcium 5 dye, a fluorescent indicator dye of cytosolic Ca^2+ levels. All Examples were tested in GPR17 Ca^2+ assay to determine (screen) their GPR17 modulating activity.
CHO hGPR17 were defrosted and seeded at a density of 20,000 cells per well into black 384-well plates with clear bottom. Cells were incubated overnight at 37° C. in a humidified atmosphere of 5% CO2. Sixteen to twenty hours after seeding, CHO hGPR17 were loaded for 60 min with Calcium 5 dye, a cytosolic Ca^2+ indicator fluorescent dye, according to manufacturer's instructions. Fluorescent signal relative to cytosolic Ca^2+ concentration was recorded over time at room temperature in FLIPR Tetra reader. […] Then, 50 nM MDL29,951, a GPR17 agonist, was added to the cells. Inhibitory effects of varying concentrations test compounds were measured and resulting plC50s were determined. […] Analysis and curve fitting were performed in ActivityBase XE using XLfit 4-parameter logistic equation y=A+((B−A)/(1+((C/x)^D))) where A, B, C and D stand for minimum y, maximum y, IC50 and slope, respectively.
The activities of the Example compounds tested are depicted in the table in Section B2B below. The activity ranges A, B and C refer to plC50 values in the Ca^2+ assay as follows: “A”: plC50<7.5, “B”: plC50 7.5<x≤ 8.5, “C”: plC50>8.5

Chain of GPR17 (Q13304 whole entry): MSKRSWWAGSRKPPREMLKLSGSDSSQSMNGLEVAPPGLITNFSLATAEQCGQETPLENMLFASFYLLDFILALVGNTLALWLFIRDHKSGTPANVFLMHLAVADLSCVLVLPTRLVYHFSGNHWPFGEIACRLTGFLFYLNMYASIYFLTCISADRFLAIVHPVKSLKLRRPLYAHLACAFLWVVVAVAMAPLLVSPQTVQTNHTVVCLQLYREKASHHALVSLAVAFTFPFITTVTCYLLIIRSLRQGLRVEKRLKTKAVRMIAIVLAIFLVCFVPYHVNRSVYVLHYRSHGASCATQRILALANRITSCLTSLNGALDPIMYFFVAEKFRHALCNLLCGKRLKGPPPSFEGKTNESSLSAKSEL

How did the IC50 turn out when N#Cc1cc(F)c(NS(=O)(=O)c2c[nH]c3cc(F)cc(F)c23)cc1F [Compound I-164, N-(4-cyano-2,5-difluorophenyl)-4,6-difluoro-1H-indole-3-sulfonamide] was run?
Its IC50 is greater than 31.6 nM.

O=S(=O)(Nc1cccc2nsnc12)c1c[nH]c2cc(F)cc(F)c12 [Compound I-166, N-(2,1,3-benzothiadiazol-4-yl)-4,6-difluoro-1H-indole-3-sulfonamide] was tested. Which IC50 did it give?
The IC50 was greater than 31.6 nM.

O=S(=O)(Nc1ccc(I)cc1F)c1c[nH]c2ncc(I)cc12 [Compound I-101, N-(2-fluoro-4-iodophenyl)-5-iodo-1H-pyrrolo[2,3-b]pyridine-3-sulfonamide] was tested. Which IC50 did it give?
Its IC50 is greater than 31.6 nM.

O=S(=O)(Nc1ncccc1F)c1c[nH]c2cc(Cl)ccc12 [Compound I-128, 6-chloro-N-(3-fluoropyridin-2-yl)-1H-indole-3-sulfonamide] was tested. Which IC50 did it give?
Its IC50 is greater than 31.6 nM.

For Cc1ccc2c(S(=O)(=O)Nc3cc(F)c(C#N)cc3F)c[nH]c2c1 [Compound I-187, N-(4-cyano-2,5-difluorophenyl)-6-methyl-1H-indole-3-sulfonamide], which IC50 is on record?
Its IC50 is 3.16 to 31.6 nM.

How did the IC50 turn out when N#Cc1cc(F)c(NS(=O)(=O)c2c[nH]c3cc(F)ccc23)cc1F [Compound I-165, N-(4-cyano-2,5-difluorophenyl)-6-fluoro-1H-indole-3-sulfonamide] was run?
Its IC50 is less than 3.16 nM.

Which IC50 does the source give for C#Cc1ccc(NS(=O)(=O)c2c[nH]c3cc(S(C)(=O)=O)ccc23)cc1 [Compound I-34, N-(4-ethynylphenyl)-6-(methylsulfonyl)-1H-indole-3-sulfonamide] here?
Its IC50 is greater than 31.6 nM.

COc1nc(NS(=O)(=O)c2c[nH]c3cc(Br)ccc23)c(F)cc1CC#N [Compound I-320, 6-bromo-N-[5-(cyanomethyl)-3-fluoro-6-methoxypyridin-2-yl]-1H-indole-3-sulfonamide] was tested. Which IC50 did it give?
The IC50 was less than 3.16 nM.

For O=S(=O)(Nc1ccc(F)cc1F)c1c[nH]c2nc(Cl)ccc12 [Compound I-86, 6-chloro-N-(2,4-difluorophenyl)-1H-pyrrolo[2,3-b]pyridine-3-sulfonamide], which IC50 is on record?
The IC50 was greater than 31.6 nM.

Which IC50 does the source give for CS(=O)(=O)c1ccc2c(S(=O)(=O)Nc3cc(F)ccc3F)c[nH]c2c1 [Compound I-28, N-(2,5-difluorophenyl)-6-(methylsulfonyl)-1H-indole-3-sulfonamide] here?
The IC50 was greater than 31.6 nM.

For O=S(=O)(Nc1cccc2c1OC(F)(F)O2)c1c[nH]c2ncc(I)cc12 [Compound I-99, N-(2,2-difluoro-1,3-benzodioxol-4-yl)-5-iodo-1H-pyrrolo[2,3-b]pyridine-3-sulfonamide], which IC50 is on record?
The IC50 was greater than 31.6 nM.

Which IC50 does the source give for N#Cc1ccc2c(S(=O)(=O)Nc3cc4c(cc3F)OC(F)(F)O4)c[nH]c2c1 [Compound I-68, 6-cyano-N-(2,2,6-trifluoro-1,3-benzodioxol-5-yl)-1H-indole-3-sulfonamide] here?
The IC50 was greater than 31.6 nM.

With O=S(=O)(Nc1ccc(Br)c2c1OC(F)(F)O2)c1c[nH]c2cc(Cl)ccc12 [Compound I-130, N-(7-bromo-2,2-difluoro-1,3-benzodioxol-4-yl)-6-chloro-1H-indole-3-sulfonamide] as the compound, how does the IC50 read?
Its IC50 is greater than 31.6 nM.

With O=S(=O)(Nc1ccc(Cl)cc1F)c1c[nH]c2cc(F)ccc12 [Compound I-51, N-(4-chloro-2-fluorophenyl)-6-fluoro-1H-indole-3-sulfonamide] as the compound, how does the IC50 read?
The IC50 was greater than 31.6 nM.

How did the IC50 turn out when O=S(=O)(Nc1cccc(F)c1F)c1c[nH]c2cc(Cl)ccc12 [Compound I-205, 6-chloro-N-(2,3-difluorophenyl)-1H-indole-3-sulfonamide] was run?
The IC50 was greater than 31.6 nM.

How did the IC50 turn out when COc1nc(NS(=O)(=O)c2c[nH]c3c(Br)c(Cl)ccc23)c(F)cc1CC#N [Compound I-322, 7-bromo-6-chloro-N-[5-(cyanomethyl)-3-fluoro-6-methoxypyridin-2-yl]-1H-indole-3-sulfonamide] was run?
The IC50 was less than 3.16 nM.

O=S(=O)(Nc1ccccc1Cl)c1c[nH]c2cc(Cl)ccc12 [Compound I-26, 6-chloro-N-(2-chlorophenyl)-1H-indole-3-sulfonamide] was tested. Which IC50 did it give?
The IC50 was greater than 31.6 nM.

For O=S(=O)(Nc1ccc2n[se]nc2c1)c1c[nH]c2cc(Cl)ccc12 [Compound I-161, N-(2,1,3-benzoselenadiazol-5-yl)-6-chloro-1H-indole-3-sulfonamide], which IC50 is on record?
Its IC50 is 3.16 to 31.6 nM.

N#Cc1ccc2c(S(=O)(=O)Nc3cc(F)c(F)cc3F)c[nH]c2c1 [Compound I-75, 6-cyano-N-(2,4,5-trifluorophenyl)-1H-indole-3-sulfonamide] was tested. Which IC50 did it give?
Its IC50 is greater than 31.6 nM.

O=S(=O)(Nc1cc(F)ccc1F)c1c[nH]c2ncc(I)cc12 [Compound I-81, N-(2,5-difluorophenyl)-5-iodo-1H-pyrrolo[2,3-b]pyridine-3-sulfonamide] was tested. Which IC50 did it give?
The IC50 was greater than 31.6 nM.

With O=S(=O)(Nc1cc2nsnc2cc1F)c1c[nH]c2cc(F)ccc12 [Compound I-172, 6-fluoro-N-(6-fluoro-2,1,3-benzothiadiazol-5-yl)-1H-indole-3-sulfonamide] as the compound, how does the IC50 read?
The IC50 was 3.16 to 31.6 nM.

How did the IC50 turn out when O=S(=O)(Nc1c(F)ccc2nsnc12)c1c[nH]c2cc(Cl)ccc12 [Compound I-131, 6-chloro-N-(5-fluoro-2,1,3-benzothiadiazol-4-yl)-1H-indole-3-sulfonamide] was run?
Its IC50 is greater than 31.6 nM.

For O=S(=O)(Nc1cccc2nsnc12)c1c[nH]c2c3c(ccc12)CCC3 [Compound I-74], which IC50 is on record?
The IC50 was greater than 31.6 nM.

How did the IC50 turn out when O=S(=O)(Nc1ccc(Cl)cc1F)c1c[nH]c2cc(C(F)(F)F)ccc12 [Compound I-53, N-(4-chloro-2-fluorophenyl)-6-(trifluoromethyl)-1H-indole-3-sulfonamide] was run?
The IC50 was greater than 31.6 nM.

With O=S(=O)(Nc1cccc(Cl)n1)c1c[nH]c2cc(Cl)ccc12 [Compound I-57, 6-chloro-N-(6-chloropyridin-2-yl)-1H-indole-3-sulfonamide] as the compound, how does the IC50 read?
Its IC50 is greater than 31.6 nM.

How did the IC50 turn out when Cc1ccc2c(S(=O)(=O)Nc3ccc(C#N)cc3)c[nH]c2c1 [Compound I-20, N-(4-cyanophenyl)-6-methyl-1H-indole-3-sulfonamide] was run?
The IC50 was 3.16 to 31.6 nM.

How did the IC50 turn out when Cc1cc(NS(=O)(=O)c2c[nH]c3cc(Cl)ccc23)ccc1C#N [Compound I-209, 6-chloro-N-(4-cyano-3-methylphenyl)-1H-indole-3-sulfonamide] was run?
The IC50 was greater than 31.6 nM.

For O=S(=O)(Nc1cccc2c1OCO2)c1c[nH]c2cc(F)ccc12 [Compound I-31, N-(1,3-benzodioxol-4-yl)-6-fluoro-1H-indole-3-sulfonamide], which IC50 is on record?
Its IC50 is greater than 31.6 nM.

How did the IC50 turn out when N#Cc1ccc(NS(=O)(=O)c2c[nH]c3c(Cl)cccc23)cc1 [Compound I-16, 7-chloro-N-(4-cyanophenyl)-1H-indole-3-sulfonamide] was run?
The IC50 was greater than 31.6 nM.

How did the IC50 turn out when N#Cc1cc(F)c(NS(=O)(=O)c2c[nH]c3ccccc23)cc1F [Compound I-145, N-(4-cyano-2,5-difluorophenyl)-1H-indole-3-sulfonamide] was run?
Its IC50 is 3.16 to 31.6 nM.

With O=S(=O)(Nc1ccc(S(F)(F)(F)(F)F)cc1)c1c[nH]c2cc(Cl)ccc12 [Compound I-217, 6-chloro-N-[4-(pentafluoro-lambda6-sulfanyl)phenyl]-1H-indole-3-sulfonamide] as the compound, how does the IC50 read?
The IC50 was greater than 31.6 nM.

How did the IC50 turn out when O=S(=O)(Nc1cc(F)cc(F)c1)c1c[nH]c2cc(Cl)ccc12 [Compound I-21, 6-chloro-N-(3,5-difluorophenyl)-1H-indole-3-sulfonamide] was run?
The IC50 was greater than 31.6 nM.
